This is an account of results in patent US20250034153A1, “TRIAZOLOPYRIMIDINES AS A2A / A2B INHIBITORS” (Incyte Corporation, priority 2019, published 2025).

The target of assay [1] is human adenosine A2B receptor (Homo sapiens (Human), UniProt P29275). Description: Adenosine A2B receptor cyclic AMP GS assay (Example B). Type of assay: cell-based. To be noted: HEK-293 cells expressing human A2B, agonist NECA 12 nM, cAMP accumulation (FRET); read-out: A2B_cAMP_EC50. How it is done:
Example B. Adenosine A2B Receptor Cyclic AMP GS Assay
Stably transfected HEK-293 cells expressing the human adenosine A2B receptor (Perkin Elmer) were maintained in MEM culture medium with 10% FBS and 100 μg/ml Geneticin (Life Technologies). 18 to 24 hours prior to assay, geneticin was removed from culture. The cisbio cAMP-GS Dynamic kit utilizing the FRET (Fluorescence Resonance Energy Transfer) technology was used to measure cAMP accumulation in the cells. Compounds of the present disclosure at an appropriate concentration were mixed with 10000 cells/well in white 96 well half area plates (Perkin Elmer) for 30 min at RT gently shaking. Agonist, NECA (R&D Technologies) at 12 nM was added to each well for 60 min at RT gently shaking. Detection reagents, d2-labeled cAMP (acceptor) and anti-cAMP cryptate (donor) were added to each well for 60 min at RT gently shaking. Plates were read on Pherastar (BMG Labtech), fluorescence ratio 665/620 was calculated and EC50 determination was performed by fitting the curve of percent of control versus the log of the compound concentration using GraphPad Prism.
For orientation: Cyclic AMP is a second messenger, typically raised through Gs and lowered through Gi signalling.

The target of a further assay is Adenosine A2A (Homo sapiens (Human), UniProt P29274). As to the kind of experiment: A2A Tag-lite HTRF assay (Example C). To be noted: Tag-lite Adenosine A2A labeled cells, Red antagonist fluorescent ligand 12.5 nM, one-site competitive binding; read-out: A2A_Ki. How it is done: Example C. A2A Tag-Lite® HTRF Assay
Assays were conducted in black low volume 384-well polystyrene plates (Greiner 784076-25) in a final volume of 10 μL. Test compounds were first serially diluted in DMSO and 100 nl added to the plate wells before the addition of other reaction components. The final concentration of DMSO was 1%. Tag-lite® Adenosine A2A labeled cells (CisBio C1TT1A2A) were diluted 1:5 into Tag-lite buffer (CisBio LABMED) and spun 1200 g for 5 mins. The pellet was resuspended at a volume 10.4× the initial cell suspension volume in Tag-lite buffer, and Adenosine A2A Receptor Red antagonist fluorescent ligand (CisBio L0058RED) added at 12.5 nM final concentration. 10 ul of the cell and ligand mix was added to the assay wells and incubated at room temperature for 45 minutes before reading on a PHERAstar FS plate reader (BMG Labtech) with HTRF 337/620/665 optical module. Percent binding of the fluorescent ligand was calculated; where 100 nM of A2A antagonist control ZM 241385 (Tocris 1036) displaces the ligand 100% and 1% DMSO has 0% displacement. The % binding data versus the log of the inhibitor concentration was fitted to a one-site competitive binding model (GraphPad Prism version 7.02) where the ligand constant=12.5 nM and the ligand Kd=1.85 nM.

Each structure is given as a SMILES string. pEC50, pKi: −log10 of the molar value.

human adenosine A2B receptor, sequence (P29275 whole entry): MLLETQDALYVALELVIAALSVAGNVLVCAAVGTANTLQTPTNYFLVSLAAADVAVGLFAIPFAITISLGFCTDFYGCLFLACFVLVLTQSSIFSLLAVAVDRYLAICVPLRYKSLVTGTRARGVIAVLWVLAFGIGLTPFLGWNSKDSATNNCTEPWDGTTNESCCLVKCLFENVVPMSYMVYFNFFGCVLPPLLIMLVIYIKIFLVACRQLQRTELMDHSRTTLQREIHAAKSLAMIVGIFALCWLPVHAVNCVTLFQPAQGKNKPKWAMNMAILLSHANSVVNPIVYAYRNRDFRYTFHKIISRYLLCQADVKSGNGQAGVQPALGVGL
Adenosine A2A, sequence (P29274 whole entry): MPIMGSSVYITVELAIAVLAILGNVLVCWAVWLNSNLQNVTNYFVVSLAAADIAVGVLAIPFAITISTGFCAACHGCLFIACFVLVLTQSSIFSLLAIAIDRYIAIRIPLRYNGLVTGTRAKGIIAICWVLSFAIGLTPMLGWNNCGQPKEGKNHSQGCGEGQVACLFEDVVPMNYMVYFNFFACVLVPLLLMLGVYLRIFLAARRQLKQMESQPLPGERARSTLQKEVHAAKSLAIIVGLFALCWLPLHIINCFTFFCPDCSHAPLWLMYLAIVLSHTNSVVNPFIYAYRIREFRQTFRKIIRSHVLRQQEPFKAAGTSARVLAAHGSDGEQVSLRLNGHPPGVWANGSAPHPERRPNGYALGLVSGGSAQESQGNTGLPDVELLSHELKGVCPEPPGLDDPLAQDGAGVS

On to `N#Cc1cccc(-c2nc(N)n3nc(Cn4nnnc4-c4cccc(N)c4)nc3c2-c2ccncn2)c1` [Example 1, 3-(5-amino-2-((5-(3-aminophenyl)-1H-tetrazol-1-yl)methyl)-8-(pyrimidin-4-yl)-[1,2,4]triazolo[1,5-c]pyrimidin-7-yl)benzonitrile], for which, in assay [1], the pEC50 was ≥ 8.00. For the same compound, the pKi on Adenosine A2A was ≥ 8.00.
Regarding `Cc1cccc(-c2nnnn2Cc2nc3c(-c4ccncn4)c(-c4cccc(C#N)c4)nc(N)n3n2)n1` [Example 2, 3-(5-amino-2-((5-(6-methylpyridin-2-yl)-1H-tetrazol-1-yl)methyl)-8-(pyrimidin-4-yl)-[1,2,4]triazolo[1,5-c]pyrimidin-7-yl)benzonitrile], the pEC50 in assay [1] was ≥ 8.00. Also, on Adenosine A2A, the pKi was ≥ 8.00.
`COc1cccc(-c2nnnn2Cc2nc3c(-c4ccncn4)c(-c4cccc(C#N)c4)nc(N)n3n2)n1` [Example 3, 3-(5-amino-2-((5-(6-methoxypyridin-2-yl)-1H-tetrazol-1-yl)methyl)-8-(pyrimidin-4-yl)-[1,2,4]triazolo[1,5-c]pyrimidin-7-yl)benzonitrile]: the pEC50 in assay [1] was 7.00 to 8.00. In addition, the pKi at Adenosine A2A was ≥ 8.00.
As for `Cn1cc(-c2c(-c3cccc(C#N)c3)nc(N)n3nc(Cn4nnnc4-c4ccccn4)nc23)ccc1=O` [Example 4, 3-(5-amino-8-(1-methyl-6-oxo-1,6-dihydropyridin-3-yl)-2-((5-(pyridin-2-yl)-1H-tetrazol-1-yl)methyl)-[1,2,4]triazolo[1,5-c]pyrimidin-7-yl)benzonitrile], in assay [1], the pEC50 is 7.00 to 8.00. On Adenosine A2A, the pKi was ≥ 8.00.
For the compound `Cn1cc(-c2c(-c3cccc(C#N)c3)nc(N)n3nc(Cn4nnnc4-n4cccn4)nc23)ccc1=O` [Example 5, 3-(2-((5-(1H-pyrazol-1-yl)-1H-tetrazol-1-yl)methyl)-5-amino-8-(1-methyl-6-oxo-1,6-dihydropyridin-3-yl)-[1,2,4]triazolo[1,5-c]pyrimidin-7-yl)benzonitrile], in assay [1], the pEC50 is 7.00 to 8.00. The pKi on Adenosine A2A is ≥ 8.00.
With `Cn1cc(-c2c(-c3cccc(C#N)c3)nc(N)n3nc(Cn4nnnc4-c4cscn4)nc23)ccc1=O` [Example 6, 3-(5-amino-8-(1-methyl-6-oxo-1,6-dihydropyridin-3-yl)-2-((5-(thiazol-4-yl)-1H-tetrazol-1-yl)methyl)-[1,2,4]triazolo[1,5-c]pyrimidin-7-yl)benzonitrile], the pEC50 in assay [1] was 7.00 to 8.00. In addition, at Adenosine A2A, the pKi was ≥ 8.00.
With `Cn1cc(-c2c(-c3cccc(C#N)c3)nc(N)n3nc(Cn4nnnc4-c4ncccn4)nc23)ccc1=O` [Example 7, 3-(5-amino-8-(1-methyl-6-oxo-1,6-dihydropyridin-3-yl)-2-((5-(pyrimidin-2-yl)-1H-tetrazol-1-yl)methyl)-[1,2,4]triazolo[1,5-c]pyrimidin-7-yl)benzonitrile], the pEC50 in assay [1] was 7.00 to 8.00. Further, the pKi on Adenosine A2A was ≥ 8.00.
For `Cn1cc(-c2c(-c3cccc(C#N)c3)nc(N)n3nc(Cn4nnnc4-c4cnccn4)nc23)ccc1=O` [Example 8, 3-(5-amino-8-(1-methyl-6-oxo-1,6-dihydropyridin-3-yl)-2-((5-(pyrazin-2-yl)-1H-tetrazol-1-yl)methyl)-[1,2,4]triazolo[1,5-c]pyrimidin-7-yl)benzonitrile], the pEC50 in assay [1] was 7.00 to 8.00. The pKi at Adenosine A2A was ≥ 8.00.
`Cn1nc(-c2c(-c3cccc(C#N)c3)nc(N)n3nc(Cn4nnnc4-c4ccccn4)nc23)ccc1=O` [Example 9, 3-(5-amino-8-(1-methyl-6-oxo-1,6-dihydropyridazin-3-yl)-2-((5-(pyridin-2-yl)-1H-tetrazol-1-yl)methyl)-[1,2,4]triazolo[1,5-c]pyrimidin-7-yl)benzonitrile]: the pEC50 in assay [1] is 7.00 to 8.00. Besides, the pKi at Adenosine A2A was ≥ 8.00.
Turning to `N#Cc1cccc(-c2nc(N)n3nc(Cn4nnnc4-c4ccccn4)nc3c2-c2ccncc2)c1` [Example 10, 3-(5-amino-2-((5-(pyridin-2-yl)-1H-tetrazol-1-yl)methyl)-8-(pyridin-4-yl)-[1,2,4]triazolo[1,5-c]pyrimidin-7-yl)benzonitrile], in assay [1], the pEC50 was ≥ 8.00. Further, on Adenosine A2A, the pKi was ≥ 8.00.
As to `CN(C)c1cc(-c2c(-c3cccc(C#N)c3)nc(N)n3nc(Cn4nnnc4-c4ccccn4)nc23)ccn1` [Example 11, 3-(5-amino-8-(2-(dimethylamino)pyridin-4-yl)-2-((5-(pyridin-2-yl)-1H-tetrazol-1-yl)methyl)-[1,2,4]triazolo[1,5-c]pyrimidin-7-yl)benzonitrile], in assay [1], the pEC50 is ≥ 8.00. On Adenosine A2A, the pKi is ≥ 8.00.
Regarding `N#Cc1cccc(-c2nc(N)n3nc(Cn4nnnc4-c4ccccn4)nc3c2-c2ccnc(N)c2)c1` [Example 12, 3-(5-amino-8-(2-aminopyridin-4-yl)-2-((5-(pyridin-2-yl)-1H-tetrazol-1-yl)methyl)-[1,2,4]triazolo[1,5-c]pyrimidin-7-yl)benzonitrile], the pEC50 in assay [1] is ≥ 8.00. Besides, the pKi at Adenosine A2A was ≥ 8.00.
For `N#Cc1cccc(-c2nc(N)n3nc(Cc4c(F)cccc4-c4ccncc4)nc3c2-c2ccncc2)c1` [Example 13, 3-(5-amino-2-(2-fluoro-6-(pyridin-4-yl)benzyl)-8-(pyridin-4-yl)-[1,2,4]triazolo[1,5-c]pyrimidin-7-yl)benzonitrile], the pEC50 in assay [1] was ≥ 8.00. At Adenosine A2A, the pKi was ≥ 8.00.
For the compound `N#Cc1cccc(-c2nc(N)n3nc(Cc4c(F)cccc4-c4ccnc(N)c4)nc3c2-c2ccnc(N)c2)c1` [Example 14, 3-(5-amino-8-(2-aminopyridin-4-yl)-2-(2-(2-aminopyridin-4-yl)-6-fluorobenzyl)-[1,2,4]triazolo[1,5-c]pyrimidin-7-yl)benzonitrile], the pEC50 in assay [1] is ≥ 8.00. The pKi on Adenosine A2A is ≥ 8.00.
As for `Cc1cccnc1CNc1nc2c(-c3ccc(=O)n(C)c3)c(-c3cccc(C#N)c3)nc(N)n2n1` [Example 15, 3-(5-amino-8-(1-methyl-6-oxo-1,6-dihydropyridin-3-yl)-2-(((3-methylpyridin-2-yl)methyl)amino)-[1,2,4]triazolo[1,5-c]pyrimidin-7-yl)benzonitrile], in assay [1], the pEC50 was ≥ 8.00. In addition, the pKi at Adenosine A2A was ≥ 8.00.
For `CCn1cc(-c2c(-c3cccc(C#N)c3)nc(N)n3nc(NCc4ncccc4C)nc23)ccc1=O` [Example 16, 3-(5-amino-8-(1-ethyl-6-oxo-1,6-dihydropyridin-3-yl)-2-(((3-methylpyridin-2-yl)methyl)amino)-[1,2,4]triazolo[1,5-c]pyrimidin-7-yl)benzonitrile], the pEC50 in assay [1] was ≥ 8.00. Besides, at Adenosine A2A, the pKi was ≥ 8.00.
On to `Cc1cccnc1CNc1nc2c(-c3ccc(=O)n(C)n3)c(-c3cccc(C#N)c3)nc(N)n2n1` [Example 17, 3-(5-amino-8-(1-methyl-6-oxo-1,6-dihydropyridazin-3-yl)-2-(((3-methylpyridin-2-yl)methyl)amino)-[1,2,4]triazolo[1,5-c]pyrimidin-7-yl)benzonitrile], for which, in assay [1], the pEC50 was ≥ 8.00. Besides, the pKi at Adenosine A2A was ≥ 8.00.
`Cc1cccnc1COc1nc2c(-c3ccc(=O)n(C)c3)c(-c3cccc(C#N)c3)nc(N)n2n1` [Example 18, 3-(5-amino-8-(1-methyl-6-oxo-1,6-dihydropyridin-3-yl)-2-((3-methylpyridin-2-yl)methoxy)-[1,2,4]triazolo[1,5-c]pyrimidin-7-yl)benzonitrile]: the pEC50 in assay [1] is ≥ 8.00. Moreover, the pKi at Adenosine A2A is ≥ 8.00.
